Data as given in US20230203021A1, “GLP-1 RECEPTOR AGONIST, PHARMACEUTICAL COMPOSITION COMPRISING SAME, AND METHOD FOR PREPARING SAME” (LG CHEM, LTD., priority 2020, published 2023).

Each compound was assayed against T1, hGLP-1R (Homo sapiens, UniProt P43220) (assay: Measurement of activity of GLP-1R agonist (cell-based luciferase assay), CHO-K1/hGLP-1R/CRE-luciferase cell line). Details: GLP-1R activity; CHO-K1/hGLP-1R/CRE-luciferase cells, 9 concentrations, four hours of incubation, Bright-Glo luminescence.
T1 construct: expressed in transfected cells; host or cells: CHO-K1
Experimental: 15,000 cells of a CHO-K1/hGLP-1R/CRE-luciferase cell line were seeded in a 96-well plate. A medium used herein was Ham’s F-12 Nutrient medium. The cells were incubated for 18 hours in a 5% CO2 incubator which was maintained at 37° C., and then treated with drugs. Each drug dispensed at 9 different concentrations was dissolved in a DMEM/F-12 + 1% FBS medium, and the cell line was treated with each of 100 µl thereof. After four hours of incubation, a Bright-Glo® luciferase assay system kit was used to add 30 µl of an assay reagent per well. A plate was stored at room temperature for 15 minutes, and then luminescence was measured using a SpectraMax M5 reader.

T1 sequence (P43220 24-463): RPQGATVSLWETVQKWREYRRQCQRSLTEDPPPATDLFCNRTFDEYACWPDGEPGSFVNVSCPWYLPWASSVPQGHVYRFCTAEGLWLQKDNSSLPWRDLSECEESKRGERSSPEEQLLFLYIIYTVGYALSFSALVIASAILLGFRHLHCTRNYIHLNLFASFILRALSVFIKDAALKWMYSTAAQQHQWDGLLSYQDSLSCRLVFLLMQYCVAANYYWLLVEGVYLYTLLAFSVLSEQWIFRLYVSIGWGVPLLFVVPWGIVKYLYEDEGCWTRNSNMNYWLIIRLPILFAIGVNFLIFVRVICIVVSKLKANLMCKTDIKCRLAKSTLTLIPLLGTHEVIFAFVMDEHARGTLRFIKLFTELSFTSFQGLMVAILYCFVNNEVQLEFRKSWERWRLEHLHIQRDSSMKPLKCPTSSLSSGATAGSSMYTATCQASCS

Compound	EC50 [nM]
N#Cc1ccc(COc2cccc(-c3ccc(Oc4nc5ccc(C(=O)O)cc5n4C[C@@H]4CCO4)cc3)n2)c(F)c1 [Example 6, (S)-2-(4-(6-((4-cyano-2-fluorobenzyl)oxy)pyridin-2-yl)phenoxy)-1-(oxetan-2-ylmethyl)-1H-benzo[d]imidazole-6-carboxylic acid]	21
N#Cc1ccc(COc2cccc(-c3ccc(Oc4nc5ccc(C(=O)O)cc5n4Cc4cnco4)cc3)n2)c(F)c1 [Example 9, 2-(4-(6-((4-cyano-2-fluorobenzyl)oxy)pyridin-2-yl)phenoxy)-1-(oxazol-5-ylmethyl)-1H-benzo[d]imidazole-6-carboxylic acid]	0.7
O=C(O)c1ccc2nc(Cc3ccc(-c4cccc(OCc5ccc(Cl)cc5F)n4)cc3)n(C[C@H]3CCCO3)c2c1 [Example 13, (R)-2-(4-(6-((4-chloro-2-fluorobenzyl)oxy)pyridin-2-yl)benzyl)-1-((tetrahydrofuran-2-yl)methyl)-1H-benzo[d]imidazole-6-carboxylic acid]	2.02
O=C(O)c1ccc2nc(Cc3ccc(-c4cccc(OCc5ccc(Cl)cc5F)n4)cc3)n(CC3CCCCO3)c2c1 (stereo not drawn) [Example 14, 2-(4-(6-((4-chloro-2-fluorobenzyl)oxy)pyridin-2-yl)benzyl)-1-((tetrahydro-2H-pyran-2-yl)methyl)-1H-benzo[d]imidazole-6-carboxylic acid]	> 80
O=C(O)c1ccc2nc(Cc3ccc(-c4cccc(OCc5ccc(C(F)(F)F)cc5F)n4)cc3)n(C[C@@H]3CCO3)c2c1 [Example 16, (S)-2-(4-(6-((2-fluoro-4-(trifluoromethyl)benzyl)oxy)pyridin-2-yl)benzyl)-1-(oxetan-2-ylmethyl)-1H-benzo[d]imidazole-6-carboxylic acid]	> 80
O=C(O)c1ccc2nc(Oc3ccc(-c4cccc(OCc5ccc(Cl)cc5F)n4)cc3F)n(C[C@@H]3CCO3)c2c1 [Example 17, (S)-2-(4-(6-((4-chloro-2-fluorobenzyl)oxy)pyridin-2-yl)-2-fluorophenoxy)-1-(oxetan-2-ylmethyl)-1H-benzo[d]imidazole-6-carboxylic acid]	0.357
O=C(O)c1ccc2nc(Oc3ccc(-c4cccc(OCc5ccc(Cl)cc5F)n4)cc3Cl)n(C[C@@H]3CCO3)c2c1 [Example 18, (S)-2-(2-chloro-4-(6-((4-chloro-2-fluorobenzyl)oxy)pyridin-2-yl)phenoxy)-1-(oxetan-2-ylmethyl)-1H-benzo[d]imidazol-6-carboxylic acid]	0.438
O=C(O)c1ccc2nc(Oc3c(F)cc(-c4cccc(OCc5ccc(Cl)cc5F)n4)cc3F)n(C[C@@H]3CCO3)c2c1 [Example 19, (S)-2-(4-(6-((4-chloro-2-fluorobenzyl)oxy)pyridin-2-yl)-2,6-difluorophenoxy)-1-(oxetan-2-ylmethyl)-1H-benzo[d]imidazole-6-carboxylic acid]	1.33
O=C(O)c1ccc2nc(Cc3ccc(-c4cccc(OCc5ccc(C(F)(F)F)cc5F)n4)cc3)n(Cc3cnco3)c2c1 [Example 21, 2-(4-(6-((2-fluoro-4-(trifluoromethyl)benzyl)oxy)pyridin-2-yl)benzyl)-1-(oxazol-5-ylmethyl)-1H-benzo[d]imidazole-6-carboxylic acid]	0.317
O=C(O)c1ccc2nc(Cc3ccc(-c4cccc(OCc5ccc(Cl)cc5F)n4)c(Cl)c3)n(Cc3cnco3)c2c1 [Example 22, 2-(3-chloro-4-(6-((4-chloro-2-fluorobenzyl)oxy)pyridin-2-yl)benzyl)-1-(oxazol-5-ylmethyl)-1H-benzo[d]imidazole-6-carboxylic acid]	0.635
CCCn1cnnc1Cn1c(Cc2ccc(-c3cccc(OCc4ccc(C(F)(F)F)cc4F)n3)cc2)nc2ccc(C(=O)O)cc21 [Example 25, 2-(4-(6-((2-fluoro-4-(trifluoromethyl)benzyl)oxy)pyridin-2-yl)benzyl)-1-((4-propyl-4H-1,2,4-triazol-3-yl)methyl)-1H-benzo[d]imidazole-6-carboxylic acid]	0.402
CCCn1cnnc1Cn1c(Cc2ccc(-c3cccc(OCc4ccc(Cl)cc4F)n3)c(Cl)c2)nc2ccc(C(=O)O)cc21 [Example 26, 2-(3-chloro-4-(6-((4-chloro-2-fluorobenzyl)oxy)pyridin-2-yl)benzyl)-1-((4-propyl-4H-1,2,4-triazol-3-yl)methyl)-1H-benzo[d]imidazole-6-carboxylic acid]	0.775
O=C(O)c1ccc2nc(Oc3ccc(-c4cccc(OCc5ccc(Cl)cc5F)n4)cc3)n(CC3CCCO3)c2c1 (stereo not drawn) [Example 28, 2-(4-(6-((4-chloro-2-fluorobenzyl)oxy)pyridin-2-yl)phenoxy)-1-((tetrahydrofuran-2-yl)methyl)-1H-benzo[d]imidazole-6-carboxylic acid]	1.12

The next compounds have a lower EC50 than those just listed; values first:

EC50 [nM]	Compound
0.205	O=C(O)c1ccc2nc(Cc3ccc(-c4cccc(OCc5ccc(Cl)cc5F)n4)cc3)n(CC3CCCO3)c2c1 (stereo not drawn) [Example 1, 2-(4-(6-((4-chloro-2-fluorobenzyl)oxy)pyridin-2-yl)benzyl)-1-((tetrahydrofuran-2-yl)methyl)-1H-benzo[d]imidazole-6-carboxylic acid]
0.007	O=C(O)c1ccc2nc(Cc3ccc(-c4cccc(OCc5ccc(Cl)cc5F)n4)cc3)n(C[C@@H]3CCO3)c2c1 [Example 2, (S)-2-(4-(6-((4-chloro-2-fluorobenzyl)oxy)pyridin-2-yl)benzyl)-1-(oxetan-2-ylmethyl)-1H-benzo[d]imidazole-6-carboxylic acid]
0.015	CCn1cncc1Cn1c(Cc2ccc(-c3cccc(OCc4ccc(C#N)cc4F)n3)cc2)nc2ccc(C(=O)O)cc21 [Example 4, 2-(4-(6-((4-cyano-2-fluorobenzyl)oxy)pyridin-2-yl)benzyl)-1-((1-ethyl-1H-imidazol-5-yl)methyl)-1H-benzo[d]imidazole-6-carboxylic acid]
0.016	CCn1cncc1Cn1c(Oc2ccc(-c3cccc(OCc4ccc(C#N)cc4F)n3)cc2)nc2ccc(C(=O)O)cc21 [Example 5, 2-(4-(6-((4-cyano-2-fluorobenzyl)oxy)pyridin-2-yl)phenoxy)-1-((1-ethyl-1H-imidazol-5-yl)methyl)-1H-benzo[d]imidazole-6-carboxylic acid]
0.066	O=C(O)c1ccc2nc(Oc3ccc(-c4cccc(OCc5ccc(Cl)cc5F)n4)cc3)n(C[C@@H]3CCO3)c2c1 [Example 7, (S)-2-(4-(6-((4-chloro-2-fluorobenzyl)oxy)pyridin-2-yl)phenoxy)-1-(oxetan-2-ylmethyl)-1H-benzo[d]imidazole-6-carboxylic acid]
0.0746	O=C(O)c1ccc2nc(Cc3ccc(-c4cccc(OCc5ccc(Cl)cc5F)n4)cc3F)n(Cc3cnco3)c2c1 [Example 11, 2-(4-(6-((4-chloro-2-fluorobenzyl)oxy)pyridin-2-yl)-2-fluorobenzyl)-1-(oxazol-5-ylmethyl)-1H-benzo[d]imidazole-6-carboxylic acid]
0.0706	O=C(O)c1ccc2nc(Cc3ccc(-c4cccc(OCc5ccc(Cl)cc5F)n4)cc3)n(C[C@@H]3CCCO3)c2c1 [Example 12, (S)-2-(4-(6-((4-chloro-2-fluorobenzyl)oxy)pyridin-2-yl)benzyl)-1-((tetrahydrofuran-2-yl)methyl)-1H-benzo[d]imidazole-6-carboxylic acid]
0.0035	O=C(O)c1ccc2nc(Cc3ccc(-c4cccc(OCc5ccc(Cl)cc5F)n4)c(F)c3)n(C[C@@H]3CCO3)c2c1 [Example 15, (S)-2-(4-(6-((4-chloro-2-fluorobenzyl)oxy)pyridin-2-yl)-3-fluorobenzyl)-1-(oxetan-2-ylmethyl)-1H-benzo[d]imidazole-6-carboxylic acid]
0.121	O=C(O)c1ccc2nc(Oc3ccc(-c4cccc(OCc5ccc(Cl)cc5F)n4)c(F)c3)n(C[C@@H]3CCO3)c2c1 [Example 20, (S)-2-(4-(6-((4-chloro-2-fluorobenzyl)oxy)pyridin-2-yl)-3-fluorophenoxy)-1-(oxetan-2-ylmethyl)-1H-benzo[d]imidazole-6-carboxylic acid]
0.061	O=C(O)c1ccc2nc(Cc3ccc(-c4cccc(OCc5ccc(Cl)cc5F)n4)c(F)c3)n(Cc3cnco3)c2c1 [Example 23, 2-(4-(6-((4-chloro-2-fluorobenzyl)oxy)pyridin-2-yl)-3-fluorobenzyl)-1-(oxazol-5-ylmethyl)-1H-benzo[d]imidazole-6-carboxylic acid]
0.167	CCCn1cnnc1Cn1c(Cc2ccc(-c3cccc(OCc4ccc(Cl)cc4F)n3)cc2)nc2ccc(C(=O)O)cc21 [Example 24, 2-(4-(6-((4-chloro-2-fluorobenzyl)oxy)pyridin-2-yl)benzyl)-1-((4-propyl-4H-1,2,4-triazol-3-yl)methyl)-1H-benzo[d]imidazole-6-carboxylic acid]
0.13	CCCn1cnnc1Cn1c(Cc2ccc(-c3cccc(OCc4ccc(Cl)cc4F)n3)c(F)c2)nc2ccc(C(=O)O)cc21 [Example 27, 2-(4-(6-((4-chloro-2-fluorobenzyl)oxy)pyridin-2-yl)-3-fluorobenzyl)-1-((4-propyl-4H-1,2,4-triazol-3-yl)methyl)-1H-benzo[d]imidazole-6-carboxylic acid]
0.208	O=C(O)c1ccc2nc(Cc3ccc(-c4cccc(OCc5ccc(C(F)(F)F)cc5F)n4)cc3)n(C[C@@H]3CCCO3)c2c1 [Example 29, (S)-2-(4-(6-((2-fluoro-4-(trifluoromethyl)benzyl)oxy)pyridin-2-yl)benzyl)-1-((tetrahydrofuran-2-yl)methyl)-1H-benzo[d]imidazole-6-carboxylic acid]
0.0327	O=C(O)c1ccc2nc(Cc3ccc(-c4cccc(OCc5ccc(Cl)cc5F)n4)cc3F)n(C[C@@H]3CCCO3)c2c1 [Example 30, (S)-2-(4-(6-((4-chloro-2-fluorobenzyl)oxy)pyridin-2-yl)-2-fluorobenzyl)-1-((tetrahydrofuran-2-yl)methyl)-1H-benzo[d]imidazole-6-carboxylic acid]
